Consider one compound from patent publication US20220282304A1, “SAME-SAMPLE ANTIBIOTIC SUSCEPTIBILITY TEST AND RELATED COMPOSITIONS, METHODS AND SYSTEMS” (CALIFORNIA INSTITUTE OF TECHNOLOGY, priority 2021, published 2022).

This assay has as its system Escherichia coli isolate A. Briefly: Same-sample filtration AST, replicate treated and concurrent reference conditions (Example 3), isolate A. The following applies: 1 μg/mL ETP, 60 minutes 37° C. In kind it is cell-based. The method, then: Isolate A was susceptible to ertapenem, while isolate B was resistant. The inoculum was small enough that no detectable difference in the sample's optical density at 600 mm (OD600) was detectable before and after inoculation by an Ultrospec 10 spectrophotometer with an analytical sensitivity of 0.01 absorbance units. After an incubation at 37° C., the media became turbid with an OD600 of 0.5 absorbance units after about 2 hours of incubation.
To begin the AST protocol, 23.75 μL of the above 8 bacteria batch culture dilutions was twice added to and mixed with 1.25 μL of water containing either 20 μg/mL or 0 μg/mL of dissolved ertapenem (ETP) antibiotic. As a result, […] at 1 μg/mL were created, and 8 untreated reference conditions were created (see Table 2 below). The […] were incubated at 37° C. for 60 minutes.
After 60 minutes of incubation, the entire volume of each antibiotic exposure was transferred to an individual cellulose acetate filter unit with a 0.2 μm pore size. […]
50 μL of fresh MHB media was spun through the filters after the first centrifugation (above) to wash away residual extracellular nucleic acids present in the fluid wetting the filters. […] In this experiment, the wash fluid was collected and analyzed to learn more about the protocol, but this washing step is not necessary for determining susceptibility of the isolate. […]

SMILES strings stand for the structures.

As to `C[C@@H](O)[C@H]1C(=O)N2C(C(=O)O)=C(S[C@@H]3CN[C@H](C(=O)Nc4cccc(C(=O)O)c4)C3)[C@H](C)[C@H]12` [ETP, ertapenem], the “susceptibility call (threshold: reference mean + 2 SD of fraction extracellular)” value (alternative analysis) was “susceptible”. In addition, the “susceptibility call (t-test treated vs untreated percent extracellular)” value (ddPCR 23S rRNA) was “susceptible”.
